{"source": "patent US20170190671A1", "about": "“BIS(ARYL)CATECHOL DERIVATIVES AS HERBICIDES” (E I DU PONT DE NEMOURS AND COMPANY, priority 2014, published 2017)", "assay_type_in_all_cases": "in vivo", "key": {"[1]": {"test_system": "barnyardgrass (Echinochloa crus-galli)", "assay": "Test B flooded paddy", "conditions": "Echinochloa crus-galli, 336 h; 250 g ai/ha, Flood, 13 to 15 days, scale 0 (no effect) to 100 (complete control); read-out: Plant response rating, Barnyardgrass", "outline": "(§1)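 Flooded 3 cm over soil; compound into paddy water; depth kept constant. Greenhouse 13–15 d.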"}, "[2]": {"test_system": "ducksalad (Heteranthera limosa)", "assay": "Test B flooded paddy", "conditions": "Heteranthera limosa, 336 h; 250 g ai/ha, Flood, 13 to 15 days, scale 0 (no effect) to 100 (complete control); read-out: Plant response rating, Ducksalad", "outline": "as §1"}, "[3]": {"test_system": "rice (Oryza sativa)", "assay": "Test B flooded paddy", "conditions": "Oryza sativa, 336 h; 250 g ai/ha, Flood, 13 to 15 days, scale 0 (no effect) to 100 (complete control); read-out: Plant response rating, Rice", "outline": "as §1"}, "[4]": {"test_system": "sedge, umbrella (small-flower umbrella sedge, Cyperus difformis)", "assay": "Test B flooded paddy", "conditions": "Cyperus difformis, 336 h; 250 g ai/ha, Flood, 13 to 15 days, scale 0 (no effect) to 100 (complete control); read-out: Plant response rating, Sedge, Umbrella", "outline": "as §1"}, "[5]": {"test_system": "Italian ryegrass (Lolium multiflorum)", "assay": "Test A preemergence", "conditions": "Lolium multiflorum, pre-emergence, 240 h, 0 to 100 scale (0 no effect, 100 complete control), read-out: Ryegrass, Italian plant response rating", "outline": "(§2)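 Visual 0–100 rating (100 = complete control) taken about 10 d post-treatment relative to untreated checks. Preemergence: directed soil spray on sown loam/sand pots. Postemergence: seedlings 2–10 cm, 1–2 leaf. Non-phytotoxic solvent formulation with surfactant.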"}, "[6]": {"test_system": "barnyardgrass (Echinochloa crus-galli)", "assay": "Test A preemergence", "conditions": "Echinochloa crus-galli, pre-emergence, 240 h, 0 to 100 scale (0 no effect, 100 complete control), read-out: Barnyardgrass plant response rating", "outline": "as §2"}, "[7]": {"test_system": "giant foxtail (Setaria faberii)", "assay": "Test A preemergence", "conditions": "Setaria faberi, pre-emergence, 240 h, 0 to 100 scale (0 no effect, 100 complete control), read-out: Foxtail, Giant plant response rating", "outline": "as §2"}, "[8]": {"test_system": "kochia (Kochia scoparia)", "assay": "Test A preemergence", "conditions": "Bassia scoparia, pre-emergence, 240 h, 0 to 100 scale (0 no effect, 100 complete control), read-out: Kochia plant response rating", "outline": "as §2"}, "[9]": {"test_system": "pigweed (Amaranthus retroflexus)", "assay": "Test A preemergence", "conditions": "Amaranthus retroflexus, pre-emergence, 240 h, 0 to 100 scale (0 no effect, 100 complete control), read-out: Pigweed plant response rating", "outline": "as §2"}, "[10]": {"test_system": "ragweed (common ragweed, Ambrosia elatior)", "assay": "Test A preemergence", "conditions": "Ambrosia artemisiifolia, pre-emergence, 240 h, 0 to 100 scale (0 no effect, 100 complete control), read-out: Ragweed plant response rating", "outline": "as §2"}, "[11]": {"test_system": "Italian ryegrass (Lolium multiflorum)", "assay": "Test A postemergence", "conditions": "Lolium multiflorum, post-emergence, 240 h, 0 to 100 scale, read-out: Plant response rating, Ryegrass, Italian", "outline": "as §2"}, "[12]": {"test_system": "barnyardgrass (Echinochloa crus-galli)", "assay": "Test A postemergence", "conditions": "Echinochloa crus-galli, post-emergence, 240 h, 0 to 100 scale, read-out: Plant response rating, Barnyardgrass", "outline": "as §2"}, "[13]": {"test_system": "blackgrass (Alopecurus myosuroides)", "assay": "Test A postemergence", "conditions": "Alopecurus myosuroides, post-emergence, 240 h, 0 to 100 scale, read-out: Plant response rating, Blackgrass", "outline": "as §2"}, "[14]": {"test_system": "corn (Zea mays)", "assay": "Test A postemergence", "conditions": "Zea mays, post-emergence, 240 h, 0 to 100 scale", "outline": "as §2"}, "[15]": {"test_system": "galium (catchweed bedstraw, Galium aparine)", "assay": "Test A postemergence", "conditions": "Galium, post-emergence, 240 h, 0 to 100 scale, read-out: Plant response rating, Galium", "outline": "as §2"}, "[16]": {"test_system": "giant foxtail (Setaria faberii)", "assay": "Test A postemergence", "conditions": "Setaria faberi, post-emergence, 240 h, 0 to 100 scale, read-out: Plant response rating, Foxtail, Giant", "outline": "as §2"}, "[17]": {"test_system": "kochia (Kochia scoparia)", "assay": "Test A postemergence", "conditions": "Bassia scoparia, post-emergence, 240 h, 0 to 100 scale, read-out: Plant response rating, Kochia", "outline": "as §2"}, "[18]": {"test_system": "pigweed (Amaranthus retroflexus)", "assay": "Test A postemergence", "conditions": "Amaranthus retroflexus, post-emergence, 240 h, 0 to 100 scale, read-out: Plant response rating, Pigweed", "outline": "as §2"}, "[19]": {"test_system": "ragweed (common ragweed, Ambrosia elatior)", "assay": "Test A postemergence", "conditions": "Ambrosia artemisiifolia, post-emergence, 240 h, 0 to 100 scale, read-out: Plant response rating, Ragweed", "outline": "as §2"}, "[20]": {"test_system": "wheat (Triticum aestivum)", "assay": "Test A postemergence", "conditions": "Triticum aestivum, post-emergence, 240 h, 0 to 100 scale, read-out: Plant response rating, Wheat", "outline": "as §2"}}}
{"smiles": "FCc1cccc(Oc2ncc(Cl)cn2)c1Oc1ncc(Cl)cn1", "note": "[Compound 44]", "values": [{"measurement": "pest or weed control at 250 g/ha", "setting": "[1]", "value": 40, "unit": "%"}, {"measurement": "pest or weed control at 250 g/ha", "setting": "[2]", "value": 95, "unit": "%"}, {"measurement": "plant injury at 250 g/ha", "setting": "[3]", "value": 40, "unit": "%"}, {"measurement": "pest or weed control at 250 g/ha", "setting": "[4]", "value": 75, "unit": "%"}, {"measurement": "pest or weed control at 31 g/ha", "setting": "[5]; 31 g ai/ha", "value": 0, "unit": "%"}, {"measurement": "pest or weed control at 125 g/ha", "setting": "[5]; 125 g ai/ha", "value": 20, "unit": "%"}, {"measurement": "pest or weed control at 31 g/ha", "setting": "[6]; 31 g ai/ha", "value": 20, "unit": "%"}, {"measurement": "pest or weed control at 125 g/ha", "setting": "[6]; 125 g ai/ha", "value": 100, "unit": "%"}, {"measurement": "pest or weed control at 31 g/ha", "setting": "[7]; 31 g ai/ha", "value": 90, "unit": "%"}, {"measurement": "pest or weed control at 125 g/ha", "setting": "[7]; 125 g ai/ha", "value": 100, "unit": "%"}, {"measurement": "pest or weed control at 31 g/ha", "setting": "[8]; 31 g ai/ha", "value": 60, "unit": "%"}, {"measurement": "pest or weed control at 125 g/ha", "setting": "[8]; 125 g ai/ha", "value": 100, "unit": "%"}, {"measurement": "pest or weed control at 31 g/ha", "setting": "[9]; 31 g ai/ha", "value": 100, "unit": "%"}, {"measurement": "pest or weed control at 125 g/ha", "setting": "[9]; 125 g ai/ha", "value": 100, "unit": "%"}, {"measurement": "pest or weed control at 31 g/ha", "setting": "[10]; 31 g ai/ha", "value": 0, "unit": "%"}, {"measurement": "pest or weed control at 125 g/ha", "setting": "[10]; 125 g ai/ha", "value": 40, "unit": "%"}, {"measurement": "pest or weed control at 31 g/ha", "setting": "[11]; 31 g ai/ha", "value": 20, "unit": "%"}, {"measurement": "pest or weed control at 125 g/ha", "setting": "[11]; 125 g ai/ha", "value": 30, "unit": "%"}, {"measurement": "pest or weed control at 31 g/ha", "setting": "[12]; 31 g ai/ha", "value": 20, "unit": "%"}, {"measurement": "pest or weed control at 125 g/ha", "setting": "[12]; 125 g ai/ha", "value": 90, "unit": "%"}, {"measurement": "pest or weed control at 31 g/ha", "setting": "[13]; 31 g ai/ha", "value": 40, "unit": "%"}, {"measurement": "pest or weed control at 125 g/ha", "setting": "[13]; 125 g ai/ha", "value": 80, "unit": "%"}, {"measurement": "Corn plant response rating (crop injury, 0 = no effect, 100 = complete kill) at 31 g/ha", "setting": "[14]; 31 g ai/ha", "value": 20, "unit": "%"}, {"measurement": "Corn plant response rating (crop injury, 0 = no effect, 100 = complete kill) at 125 g/ha", "setting": "[14]; 125 g ai/ha", "value": 70, "unit": "%"}, {"measurement": "pest or weed control at 31 g/ha", "setting": "[15]; 31 g ai/ha", "value": 70, "unit": "%"}, {"measurement": "pest or weed control at 125 g/ha", "setting": "[15]; 125 g ai/ha", "value": 80, "unit": "%"}, {"measurement": "pest or weed control at 31 g/ha", "setting": "[16]; 31 g ai/ha", "value": 10, "unit": "%"}, {"measurement": "pest or weed control at 125 g/ha", "setting": "[16]; 125 g ai/ha", "value": 90, "unit": "%"}, {"measurement": "pest or weed control at 31 g/ha", "setting": "[17]; 31 g ai/ha", "value": 50, "unit": "%"}, {"measurement": "pest or weed control at 125 g/ha", "setting": "[17]; 125 g ai/ha", "value": 80, "unit": "%"}, {"measurement": "pest or weed control at 31 g/ha", "setting": "[18]; 31 g ai/ha", "value": 30, "unit": "%"}, {"measurement": "pest or weed control at 125 g/ha", "setting": "[18]; 125 g ai/ha", "value": 70, "unit": "%"}, {"measurement": "pest or weed control at 31 g/ha", "setting": "[19]; 31 g ai/ha", "value": 20, "unit": "%"}, {"measurement": "pest or weed control at 125 g/ha", "setting": "[19]; 125 g ai/ha", "value": 70, "unit": "%"}, {"measurement": "plant injury at 31 g/ha", "setting": "[20]; 31 g ai/ha", "value": 20, "unit": "%"}, {"measurement": "plant injury at 125 g/ha", "setting": "[20]; 125 g ai/ha", "value": 80, "unit": "%"}]}
